In US20240209038A1, “TARGETING PIEZO1 TO TREAT INHERITED AND AGE-RELATED MACULAR DEGENERATIONS” (priority 2021, published 2024):
pEC50: −log10 of the molar value. No end group written: not given here.

Tests used:
Piezo1 [1] = settings: Suchyna, et al. Nature 430:235-240, 2004; cited from earlier work
primary porcine RPE = experiment: Live imaging of calcium influx (Fluo-4 NW) in polarized primary RPE; type: cell-based, pig; settings: for cytosolic and nuclear calcium at baseline: RPE treated with stressor causing cholesterol and ceramide accumulation; for intracellular calcium spikes in RPE cultured on silica beads: RPE cultured on silica beads to simulate drusen
Text: (§1) Primary adult RPE cultures. Polarized RPE monolayers from pig eyes were generated as described (Kaur et al., 2018; Tan et al., 2016; Toops et al., 2015; Toops et al., 2014). RPE on collagen-coated transwell filters form fully polarized monolayers within two weeks, develop trans-epithelial electrical resistances (TER) of ≥400 ohm·cm^2 and express RPE differentiation markers such as apical Na^+,K^+-ATPase and intracellular RPE65 (Toops et al., 2014).
(§2) Intrinsic stressors to activate Piezo1. RPE monolayers were treated with the bisretinoid A2E to increase cholesterol and ceramide (Kaur et al., 2018; La Cunza et al., 2020; Tan et al., 2016; Toops et al., 2015), which act as intrinsic stressors that activate Piezo1.
Extrinsic stressors to activate Piezo1. To simulate drusen-mediated mechanical stress, cells were cultured on collagen-coated filters layered with 500 nm diameter monodisperse silica microspheres (Cospheric SiO2MS-2.0 0.507 μm) at a density of 40 beads/cm^2 in a collagen (10 μg/cm^2) matrix.
Drugs that modulate Piezo1 activity (Xiao, 2020). Yoda1 is a small molecule gating modifier that specifically potentiates Piezo1 mechanosensitivity and slows the inactivation kinetics with EC50 of ˜10-20 μM. It interacts with the […] domains of Piezo1 and thereby increases channel opening time. […] We treated primary RPE cultures for 6 hours with 10 μM Yoda1 (Sigma SML1558) for immunostaining/immunoblotting and biochemical experiments, or with 25 μM for 1-5 minutes for live imaging experiments. RPE cultures were treated with 500 nM GsMTx-4 (Tocris 4912100U) for 6 h.
High-speed live-cell imaging. The Nikon CSU-X1 dual camera platform spinning disk confocal microscopy system will be used for live imaging of primary RPE cultures and mouse RPE flatmounts. Images will be analyzed using Imaris (Bitplane) (Kaur et al., 2018; Tan et al., 2016; Toops et al., 2015). If necessary, Delta Vision OMX-SR (GE Healthcare Life Sciences) with 3D structured illumination microscopy (3D-SIM) and ring-TIRF capabilities at UCSF's Nikon Imaging Center will be used for super-resolution imaging.
Live imaging of calcium influx. For live imaging of calcium influx, primary porcine RPE grown on Transwell filters±A2E or grown on silica beads, and mouse RPE flatmounts were loaded with Fluo-4 NW (Invitrogen, F36206) for 30 min according to manufacturer's protocol. Excised Transwell filters or mouse RPE flatmounts were mounted onto a Warner chamber in the presence of Fluorobrite DMEM (Gibco, A1896701) supplemented with 1% FBS (ATCC, 30-2020), 1% NEAA (Corning, 25025CI), and 4 mM L-glutamine (Gibco, 25030081) and imaged using Nikon spinning disk confocal microscope with 60× oil immersion objective (1.49 NA). To increase or inhibit Piezo1 channel activity, Yoda1 (25 μM) or GsMTx-4 (5 μM) was added prior to live imaging. Apart from these drugs, preincubation with BAPTA-AM (Thermofisher) was used to determine the Ca^2+-dependence of nuclear and cytosolic signals.

RPE [2] = settings: cited from earlier work; for cholesterol and ceramide accumulation in RPE: Tan et al., 2016
[3] = test system: Abca4−/− mice RPE flatmounts; experiment: Live imaging of calcium influx (Fluo-4 NW) in mouse RPE flatmounts; type: cell-based; settings: preliminary live imaging
Text: (§3) Mice. There are no mouse models that adequately reproduce AMD phenotypes. We therefore used models that best recapitulate the phenotype of interest. We used pigmented wild-type (129S1/SvlmJ) and Abca4^−/− mice (Jackson Labs) because we and others have reported that Abca4^−/− mice RPE show an age-dependent accumulation of cholesterol and ceramide (Kaur et al., 2018; Lenis et al., 2017; Tan et al., 2016; Toops et al., 2015), which are known to prolong Piezo1 activation (Ridone et al., 2020, Shi et al., 2020).
(§4) Live imaging of mouse RPE flatmounts. Tissue from freshly harvested eyes will be mounted onto a Warner chamber in the presence of Fluorobrite DMEM (Gibco, A1896701) supplemented with 1% FBS (ATCC, 30-2020), 1% NEAA (Corning, 25025CI), and 4 mM L-glutamine (Gibco, 25030081) and imaged immediately using a 60× oil immersion objective (1.49 NA).
Live imaging of calcium influx. For live imaging of calcium influx, primary porcine RPE grown on Transwell filters±A2E or grown on silica beads, and mouse RPE flatmounts were loaded with Fluo-4 NW (Invitrogen, F36206) for 30 min according to manufacturer's protocol. […]

primary polarized RPE [4] = experiment: H3K9me3 immunostaining in primary polarized RPE; type: cell-based, pig; settings: prolonged piezo1 activation
Procedure: (§5) FIGS. 4A-4E. 4A, 3D reconstructions; 4B, quantitation of mitochondrial volumes from Tom20 staining in primary RPE cultures treated or not with Yoda1 and GsMTx-4. Warmer colors indicate healthy mitochondria and cooler colors indicate fragmented mitochondria. Mean±SEM; *** p<0.0001, unpaired t-test. 4C, H3K9me3 (red; merge with DAPI appears pink) immunostaining in primary RPE cultured on collagen or collagen with silica beads±GSMTx-4 (500 nM, 3 h). 4D, Actin labeling in live primary RPE cultures. Arrow heads: actin “knots” that indicate areas of actin polymerization prior to actomyosin contraction and cell extrusion. 4E, quantitation of actin staining intensity in primary RPE cultured on collagen or collagen with beads and treated with Yoda1 and/or GsMTx-4. Mean±SEM, *, p<0.05; *** p<0.001, unpaired t-test.
as §1
(§6) Drugs that modulate Piezo1 activity (Xiao, 2020). […]

primary polarized RPE [5] = experiment: Mitochondrial volumes/fragmentation from Tom20 staining in primary RPE cultures; type: cell-based, pig
Procedure: as §5, §1, §6

[6] = test system: polarized primary RPE cultures; experiment: Live imaging of actin dynamics (SiR-actin) in polarized primary RPE cultures; type: cell-based, pig
Procedure: as §5
Primary adult RPE cultures. Polarized RPE monolayers from pig eyes were generated as described (Kaur et al., 2018; Tan et al., 2016; Toops et al., 2015; Toops et al., 2014). RPE on collagen-coated transwell filters form fully polarized monolayers within two weeks, develop trans-epithelial electrical resistances (TER) of ≥400 ohm·cm^2 and express RPE differentiation markers such as apical Na^+,K^+-ATPase and intracellular RPE65 (Toops et al., 2014). […]

[7] = test system: Abca4−/− mice RPE flatmounts; experiment: Live imaging of actin (SiR-actin) in mouse RPE flatmounts; type: cell-based; settings: freshly isolated Abca4−/− mice RPE flatmounts compared to age-matched wild types
Text: FIGS. 5A-5C. Validation of the Abca4−/− mouse model to study the role of Piezo1 in RPE dysfunction. 5A, H3K9me3 (red) immunostaining in 8-month-old wild type and Abca4−/− mouse RPE flatmounts. 5B, reconstruction of mitochondrial volumes from Tom20 staining in wild type and Abca4−/− mouse RPE flatmounts. Warmer colors indicate healthy mitochondria and cooler colors indicate fragmented mitochondria. 5C, Live imaging of mouse RPE flatmounts with FluoNW (green) and SiR-actin (red).
as §4
Live imaging of actin dynamics was performed using SiR-actin (1 μM, 30 min) and FLIPPER-TR plasma membrane probe in RPE with A2E or grown on silica beads±Yoda1±GsMTx-4

Piezo1 [8] = settings: Xiao, 2020; read-out: EC50, potentiates Piezo1 mechanosensitivity and slows the inactivation kinetics; cited from earlier work
Piezo2 = settings: specificity for Piezo1; cited from earlier work
RPE [9] = experiment: Complement-mediated mitochondrial fragmentation in RPE (mito-RFP live imaging, A2E + 10% NHS); type: cell-based; settings: A2E-treated RPE exposed to 10% NHS; Simvastatin 5 μM 16 h, T0901317 1 μM 16 h, desipramine 10 μM 3 h
Procedure: (§7) FIGS. 7A-7B. 7A, 3D reconstruction from live imaging of mitochondrial volumes in mock transfected RPE transduced with mito-RFP, treated with A2E and exposed to 10% NHS to induce complement attack. RPE were treated with Simvastatin (5 μM, 16 h), T0901317 (1 μM, 16 h) or desipramine (10 μM, 3 h) prior to imaging. […] 7B, Quantification of fragmented mitochondria per cell from images in A. Mean±SEM, ***, p<0.0001, t-test. C, H3K9me3 (red) immunostaining in retinal cryosections from Abca4−/− mice treated with vehicle or […] desipramine i.p.

RPE [10] = experiment: Cholesterol and ceramide accumulation in the RPE; type: cell-based; settings: FIGS. 3A and 3B
Procedure: as §2

Piezo1 [11] = target: T1, Piezo1 (Homo sapiens, UniProt Q92508); experiment: Piezo1 currents in whole cell-clamped primary RPE (patch-clamp/high-speed pressure clamp); type: cell-based; settings: depletion of membrane cholesterol
T1 construct: Dissociated RPE cells from human donors were whole cell-clamped; endogenous in cells; host or cells: dissociated RPE cells from human donors
Text: FIGS. 3A-3D. Cholesterol and ceramide modulate Piezo1 activation in the RPE. 3A, Stills (at 130 sec and 300 sec) from Fluo4NW live imaging (green); 3B, quantification. In the results provided in FIGS. 3A and 3B, U18 increased cholesterol and ceramide. Mean±SEM, ** p<0.005, unpaired t-test. 3C, Representative traces of whole-cell currents in primary RPE recorded in a typical patch-clamp/HSPC experiment (40 mV holding potential, 25 mm Hg pressure step for 500 mSec). Black trace—control cells; red trace—RPE treated with b-cyclodextrin to deplete membrane cholesterol. 3D, Quantification of results in C. Mean±SEM, n=4 cells.
Electrophysiology. Dissociated RPE cells from human donors were whole cell-clamped. Steps of positive pressure (2-30 mm Hg) were applied through the patch pipette using high-speed pressure clamp (ALA Instruments) or the cells stimulated with msec indentations of a blunt pipette tip (Physik Instrumente) to evoke the mechanosensitive current. The Piezo1-dependent current was confirmed using GsMTx-4 (Lapajne et al., 2020).

Piezo1 [12] = target: Piezo1 (Mus musculus, UniProt E2JF22); settings: whole cell recordings as described in Bae et al., Biochemistry 50:6295-300, 2011; range printed with mixed units (nM to μM); read-out: Kd, reversible block of Piezo1 activation; cited from earlier work
Abca4−/− mice = experiment: Nuclear H3K9me3 in RPE of Abca4−/− mice after drug administration; type: in vivo, mouse; settings: 10 mg/kg i.p., three times/week for four weeks, compared to vehicle-treated mice
Procedure: as §7, §3
Antibodies. All antibodies used were validated for specificity using the relevant IgG controls, cell lysates lacking the antigen, or by blocking peptides. […]

[13] = in vitro and in vivo (Kaur et al., 2018; Tan et al., 2016; Toops et al., 2015)

Piezo1 (Mus musculus, UniProt E2JF22), sequence (E2JF22 whole entry): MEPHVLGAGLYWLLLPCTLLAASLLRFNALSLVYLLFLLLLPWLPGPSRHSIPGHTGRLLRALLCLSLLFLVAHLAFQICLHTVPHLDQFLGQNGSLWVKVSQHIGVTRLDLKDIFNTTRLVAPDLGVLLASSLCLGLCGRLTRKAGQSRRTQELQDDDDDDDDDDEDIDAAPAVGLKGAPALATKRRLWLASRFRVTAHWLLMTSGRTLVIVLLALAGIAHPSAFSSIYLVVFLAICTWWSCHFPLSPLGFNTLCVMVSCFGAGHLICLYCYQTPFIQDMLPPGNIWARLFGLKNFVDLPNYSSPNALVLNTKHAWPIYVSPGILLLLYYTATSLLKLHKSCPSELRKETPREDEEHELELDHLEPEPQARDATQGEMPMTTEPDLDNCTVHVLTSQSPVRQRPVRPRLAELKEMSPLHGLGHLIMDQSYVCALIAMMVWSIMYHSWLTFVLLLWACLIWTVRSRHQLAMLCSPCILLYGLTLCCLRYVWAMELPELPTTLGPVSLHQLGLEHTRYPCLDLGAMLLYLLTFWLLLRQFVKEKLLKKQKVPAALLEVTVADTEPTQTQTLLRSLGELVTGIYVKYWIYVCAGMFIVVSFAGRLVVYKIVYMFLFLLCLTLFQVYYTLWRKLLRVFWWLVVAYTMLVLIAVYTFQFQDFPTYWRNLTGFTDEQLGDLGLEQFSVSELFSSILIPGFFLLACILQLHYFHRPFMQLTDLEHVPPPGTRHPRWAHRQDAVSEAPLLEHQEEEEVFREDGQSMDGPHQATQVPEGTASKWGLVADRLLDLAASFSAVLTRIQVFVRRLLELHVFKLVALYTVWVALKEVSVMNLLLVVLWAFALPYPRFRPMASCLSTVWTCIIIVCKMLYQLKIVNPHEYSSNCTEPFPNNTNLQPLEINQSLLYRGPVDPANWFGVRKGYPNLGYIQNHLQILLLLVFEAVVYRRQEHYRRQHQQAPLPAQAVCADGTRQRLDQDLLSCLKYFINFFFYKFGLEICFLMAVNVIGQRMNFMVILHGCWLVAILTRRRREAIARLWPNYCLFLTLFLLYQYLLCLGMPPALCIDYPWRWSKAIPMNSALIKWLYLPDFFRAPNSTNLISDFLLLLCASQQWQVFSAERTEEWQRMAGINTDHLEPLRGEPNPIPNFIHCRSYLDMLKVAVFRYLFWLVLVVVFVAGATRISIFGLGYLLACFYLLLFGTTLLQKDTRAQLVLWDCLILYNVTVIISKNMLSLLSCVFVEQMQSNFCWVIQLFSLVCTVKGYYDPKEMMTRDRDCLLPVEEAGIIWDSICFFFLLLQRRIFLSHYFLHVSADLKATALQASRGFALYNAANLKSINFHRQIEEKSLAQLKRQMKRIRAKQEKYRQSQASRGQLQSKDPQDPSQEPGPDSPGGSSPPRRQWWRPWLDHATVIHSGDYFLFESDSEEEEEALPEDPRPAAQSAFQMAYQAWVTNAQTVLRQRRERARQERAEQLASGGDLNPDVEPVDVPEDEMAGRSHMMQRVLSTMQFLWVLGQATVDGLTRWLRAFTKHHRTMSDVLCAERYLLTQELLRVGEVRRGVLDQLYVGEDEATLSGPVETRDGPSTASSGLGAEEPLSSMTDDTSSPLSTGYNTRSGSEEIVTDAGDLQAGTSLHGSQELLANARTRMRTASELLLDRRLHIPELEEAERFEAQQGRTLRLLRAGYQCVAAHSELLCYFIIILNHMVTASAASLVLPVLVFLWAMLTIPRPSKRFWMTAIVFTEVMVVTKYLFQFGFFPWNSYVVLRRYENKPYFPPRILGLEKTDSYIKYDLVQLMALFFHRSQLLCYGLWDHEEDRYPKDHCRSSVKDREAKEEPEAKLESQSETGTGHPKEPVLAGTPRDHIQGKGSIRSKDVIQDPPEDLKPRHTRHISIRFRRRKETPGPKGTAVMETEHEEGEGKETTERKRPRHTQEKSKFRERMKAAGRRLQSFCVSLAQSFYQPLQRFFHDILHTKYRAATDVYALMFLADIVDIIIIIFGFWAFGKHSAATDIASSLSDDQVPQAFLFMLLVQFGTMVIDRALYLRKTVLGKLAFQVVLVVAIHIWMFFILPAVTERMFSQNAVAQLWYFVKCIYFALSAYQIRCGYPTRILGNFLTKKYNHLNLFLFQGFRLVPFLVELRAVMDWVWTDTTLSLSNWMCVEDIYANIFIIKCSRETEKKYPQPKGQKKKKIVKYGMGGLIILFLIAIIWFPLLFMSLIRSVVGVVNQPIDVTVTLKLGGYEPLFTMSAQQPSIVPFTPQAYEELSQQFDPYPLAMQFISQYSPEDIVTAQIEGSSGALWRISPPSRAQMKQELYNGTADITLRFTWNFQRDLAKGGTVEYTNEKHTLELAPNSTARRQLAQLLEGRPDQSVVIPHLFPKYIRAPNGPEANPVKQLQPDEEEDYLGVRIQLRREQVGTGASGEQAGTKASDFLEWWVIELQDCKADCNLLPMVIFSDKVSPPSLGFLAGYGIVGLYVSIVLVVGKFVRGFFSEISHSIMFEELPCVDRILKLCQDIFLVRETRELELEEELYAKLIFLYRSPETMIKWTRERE
T1 sequence (Q92508 whole entry): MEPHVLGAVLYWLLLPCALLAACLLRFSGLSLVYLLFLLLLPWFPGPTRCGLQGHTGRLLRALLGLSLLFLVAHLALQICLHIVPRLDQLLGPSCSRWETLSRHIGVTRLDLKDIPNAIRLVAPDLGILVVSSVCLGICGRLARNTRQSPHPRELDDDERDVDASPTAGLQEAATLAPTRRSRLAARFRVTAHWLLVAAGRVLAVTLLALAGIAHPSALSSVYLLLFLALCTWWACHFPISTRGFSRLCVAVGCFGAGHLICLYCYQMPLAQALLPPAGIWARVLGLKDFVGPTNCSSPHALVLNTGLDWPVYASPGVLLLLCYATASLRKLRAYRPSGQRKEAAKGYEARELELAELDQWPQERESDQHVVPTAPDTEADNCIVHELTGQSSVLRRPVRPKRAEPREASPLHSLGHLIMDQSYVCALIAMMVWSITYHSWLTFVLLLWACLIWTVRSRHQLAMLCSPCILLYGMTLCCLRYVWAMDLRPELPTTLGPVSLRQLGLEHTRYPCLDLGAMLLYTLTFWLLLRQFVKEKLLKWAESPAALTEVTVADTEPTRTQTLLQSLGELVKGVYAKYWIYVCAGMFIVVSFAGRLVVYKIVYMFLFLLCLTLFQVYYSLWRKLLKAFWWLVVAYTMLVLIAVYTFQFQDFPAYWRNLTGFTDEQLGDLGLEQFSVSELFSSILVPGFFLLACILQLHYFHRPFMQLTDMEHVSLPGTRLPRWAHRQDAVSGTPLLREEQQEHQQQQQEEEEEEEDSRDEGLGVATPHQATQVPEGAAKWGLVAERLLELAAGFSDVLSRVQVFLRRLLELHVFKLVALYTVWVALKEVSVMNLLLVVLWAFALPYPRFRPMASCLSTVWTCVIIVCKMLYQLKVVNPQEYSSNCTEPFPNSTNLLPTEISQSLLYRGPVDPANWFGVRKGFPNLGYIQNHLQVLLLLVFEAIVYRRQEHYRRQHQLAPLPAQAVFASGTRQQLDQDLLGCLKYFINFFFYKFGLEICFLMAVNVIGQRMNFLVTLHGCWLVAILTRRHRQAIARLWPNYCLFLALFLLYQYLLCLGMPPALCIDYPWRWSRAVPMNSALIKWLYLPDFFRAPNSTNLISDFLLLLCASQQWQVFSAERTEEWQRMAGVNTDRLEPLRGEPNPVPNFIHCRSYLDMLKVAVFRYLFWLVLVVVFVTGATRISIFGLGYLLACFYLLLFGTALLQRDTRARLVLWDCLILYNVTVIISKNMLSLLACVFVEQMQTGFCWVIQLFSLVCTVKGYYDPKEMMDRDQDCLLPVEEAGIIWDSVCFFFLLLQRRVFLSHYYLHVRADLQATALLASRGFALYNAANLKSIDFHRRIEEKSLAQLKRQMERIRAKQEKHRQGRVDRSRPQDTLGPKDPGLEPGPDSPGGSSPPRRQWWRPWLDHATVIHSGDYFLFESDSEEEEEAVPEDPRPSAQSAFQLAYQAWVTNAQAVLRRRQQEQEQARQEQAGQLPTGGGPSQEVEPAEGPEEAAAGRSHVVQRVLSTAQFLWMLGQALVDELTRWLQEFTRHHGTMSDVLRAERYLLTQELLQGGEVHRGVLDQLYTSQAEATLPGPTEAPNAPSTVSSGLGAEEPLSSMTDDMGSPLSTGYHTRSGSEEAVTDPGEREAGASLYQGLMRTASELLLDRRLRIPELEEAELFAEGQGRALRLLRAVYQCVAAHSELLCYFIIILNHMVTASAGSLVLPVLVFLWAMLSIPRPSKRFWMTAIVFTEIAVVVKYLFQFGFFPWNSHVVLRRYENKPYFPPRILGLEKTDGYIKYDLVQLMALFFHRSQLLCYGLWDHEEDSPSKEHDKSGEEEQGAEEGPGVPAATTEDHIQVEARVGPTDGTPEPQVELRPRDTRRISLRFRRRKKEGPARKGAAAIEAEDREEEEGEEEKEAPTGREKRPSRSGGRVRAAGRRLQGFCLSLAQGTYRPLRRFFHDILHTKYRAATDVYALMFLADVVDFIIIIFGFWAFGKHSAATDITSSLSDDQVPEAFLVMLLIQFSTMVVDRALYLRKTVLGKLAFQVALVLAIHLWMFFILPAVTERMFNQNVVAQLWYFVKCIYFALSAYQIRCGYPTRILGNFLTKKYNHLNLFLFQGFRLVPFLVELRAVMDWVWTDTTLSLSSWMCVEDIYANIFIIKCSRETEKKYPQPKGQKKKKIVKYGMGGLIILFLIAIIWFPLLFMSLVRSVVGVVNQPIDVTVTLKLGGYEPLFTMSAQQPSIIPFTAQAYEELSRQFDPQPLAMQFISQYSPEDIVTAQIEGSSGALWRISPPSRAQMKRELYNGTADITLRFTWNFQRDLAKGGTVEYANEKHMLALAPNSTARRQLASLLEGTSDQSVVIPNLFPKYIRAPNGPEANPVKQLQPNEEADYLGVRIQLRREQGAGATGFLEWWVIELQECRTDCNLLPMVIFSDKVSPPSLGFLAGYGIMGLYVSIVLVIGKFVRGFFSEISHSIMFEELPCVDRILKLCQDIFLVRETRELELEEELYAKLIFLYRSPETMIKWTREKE

In the case of “GsMTx4-L: L enantiomeric form of GsMTx4 (GCLEFWWKCNPNDDKCCRPKLKCSKLFKLCNFSF; ends and bridges not checked; cysteine pairing not given here; UniProt Q7YT39 47-80, looked up)”, the “effectiveness at blocking Piezo1 activation, L- versus D-enantiomer” value (Piezo1 [1]) is given as “equally effective”.
For CC1=C(/C=C/C(C)=C/C=C/C(C)=C/c2cc(/C=C/C=C(C)/C=C/C3=C(C)CCCC3(C)C)cc[n+]2CCO)C(C)(C)CCC1 [A2E], the “cytosolic and nuclear calcium at baseline” value (primary porcine RPE) is given as “prolonged cytosolic and nuclear calcium even at baseline” and the “cholesterol and ceramide accumulation in RPE” value (RPE [2]) is given as “cause cholesterol and ceramide accumulation”.
With Clc1cccc(Cl)c1CSc1nnc(-c2cnccn2)s1 [Yoda1] the “calcium influx in the RPE” value (primary porcine RPE; 25 μM, 1 min, RPE on collagen, live imaging) was “induces a rapid nuclear calcium influx within seconds”, the “intracellular calcium spikes in RPE cultured on silica beads” value (primary porcine RPE) was “further potentiated” and the “calcium influx in freshly isolated RPE flatmounts” value [3] was “increased calcium influx”. For the same compound, the “nuclear H3K9me3” value (primary polarized RPE [4]) was “loss of nuclear H3K9me3”, the mitochondrial fragmentation (primary polarized RPE [5]) was “mitochondrial fragmentation” and the “actin accumulation at cell-cell junctions” value [6] was “caused rapid actin accumulation at cell-cell junctions”. The “actin intensity in RPE flatmounts” value [7] was “increased actin intensity”, the pEC50 (Piezo1 [8]) was 4.70 to 5.00 and the “activation of Piezo2” value (Piezo2) was “does not activate Piezo2”.
For O=S(=O)(c1ccccc1)N(CC(F)(F)F)c1ccc(C(O)(C(F)(F)F)C(F)(F)F)cc1 [T0901317], the “complement-mediated mitochondrial fragmentation in RPE” value (RPE [9]) is listed as “protect” and the “lipofuscin-induced cholesterol accumulation in the RPE” value (RPE [2]; [13]) is listed as “decreased”.
In the case of CCN(CC)CCO[C@H]1CC[C@@]2(C)C(=CC[C@@H]3[C@@H]2CC[C@]2(C)C(=O)CC[C@@H]32)C1 [U18666A], the “cytosolic and nuclear calcium at baseline” value (primary porcine RPE) was “prolonged cytosolic and nuclear calcium even at baseline”, the “calcium levels after Yoda1 treatment” value (primary porcine RPE; RPE+U18 versus control RPE, where they returned to baseline within minutes) was “remained high in all cellular compartments” and the “cholesterol and ceramide in RPE” value (RPE [10]) was “increased”. For the same compound, the “cholesterol and ceramide accumulation in RPE” value (RPE [2]) was “cause cholesterol and ceramide accumulation”.
For cyclodextrin, the “peak current amplitudes of Piezo1 currents” value (Piezo1 [11]) was “drastically decreased”.
With GsMTx-4 the “intracellular calcium spikes in RPE cultured on silica beads” value (primary porcine RPE) was “decreased”, the mitochondrial fragmentation (primary polarized RPE [5]) was “protected RPE mitochondria” and the “actin accumulation at cell-cell junctions” value [6] was “prevented”. The Kd (Piezo1 [12]) was 155 to 2000 nM.
For CNCCCN1c2ccccc2CCc2ccccc21 [desipramine], the “complement-mediated mitochondrial fragmentation in RPE” value (RPE [9]) is listed as “protect”, the “nuclear H3K9me3 in the RPE” value (Abca4−/− mice) is listed as “restored nuclear H3K9me3” and the “lipofuscin-induced ceramide accumulation in the RPE” value (RPE [2]; [13]) is listed as “decreased”.
